Test results reported in patent US9957262B2, “Opioid analgesic” (NATIONAL UNIVERSITY CORPORATION CHIBA UNIVERSITY, priority 2013, dated 2018).
pKi: −log10 of the molar value. “Also recorded” adds a separate entry of the source. Where two headings read alike, the source gives them in different places.

What was measured:
[1] = tested on: mice; conditions: subcutaneous or oral administration, tail-flick test or hot-plate test; cited from earlier work
[2] = tested on: opioid receptors; conditions: guinea pig small intestine, via opioid receptors; cited from earlier work
[3] = Metabolic stability test, human liver microsome; type: in vitro ADME; conditions: for Metabolic stability Ms human (% remaining): human liver microsomal fraction, 37° C., 30 minutes, NADPH; for metabolic stability compared to formula (III), in words: in vitro metabolic stability test using liver microsome
From the text: (§1) Liver microsome was used and subjected to a reaction with MGM-30 or MGM-29 for a predetermined time. A sample subjected to the reaction was compared to a sample not subjected to the reaction to calculate a residual ratio for evaluating a degree of a compound that was metabolized in liver. MGM-9 was used as a sample for comparison and evaluated by the same method.
(§2) Commercially available pooled human liver microsome (manufactured by Xenotech) was used as human liver microsome. Pooled rat liver microsome prepared from rat liver by a method known per se was used as rat liver microsome.
(§3) A metabolic stability test was specifically performed as described below. First, a test compound was subjected to a reaction (oxidative reaction) at 37° C. for 0 minutes or 30 minutes in 0.2 mL of a buffer (50 mmol/L tris-HCl pH 7.4, 150 mmol/L potassium chloride, 10 mmol/L magnesium chloride) containing 0.5 mg protein/mL of liver microsome in the presence of 1 mmol/L nicotinamide adenine dinucleotide phosphate (hereinafter abbreviated as NADPH). After the reaction, 50 μL of the reaction liquid was added to 100 μL of a solution of methanol/acetonitrile=1/1 (volume/volume: hereinafter abbreviated as v/v), followed by mixing and centrifugation at 3,000 rpm for 15 minutes. The test compound in the centrifugation supernatant was quantified by liquid chromatograph/tandem mass spectrometry (LC/MS/MS). Then, the amount of the compound at the start of the reaction was defined as 100%, and the residual ratio of the test compound after the reaction was calculated. A hydrolysis reaction was performed in the absence of NADPH, and a glucuronidation reaction was performed in the presence of 5 mM UDP-glucuronic acid in place of NADPH. Then, the same operation was performed.

[4] = target: T1, human μ-opioid receptors (Homo sapiens, UniProt P35372); assay: Human μ-opioid receptor binding test with [3H]-DAMGO; conditions: for pKi: [3H]-DAMGO 1 nM, CHO-K1 membrane fraction expressing human μ-opioid receptor, read-out: hMOR binding Ki
T1 construct: purchased PerkinElmer; host or cells: CHO-K1 cells (membrane fraction)
T1 sequence (P35372 whole entry): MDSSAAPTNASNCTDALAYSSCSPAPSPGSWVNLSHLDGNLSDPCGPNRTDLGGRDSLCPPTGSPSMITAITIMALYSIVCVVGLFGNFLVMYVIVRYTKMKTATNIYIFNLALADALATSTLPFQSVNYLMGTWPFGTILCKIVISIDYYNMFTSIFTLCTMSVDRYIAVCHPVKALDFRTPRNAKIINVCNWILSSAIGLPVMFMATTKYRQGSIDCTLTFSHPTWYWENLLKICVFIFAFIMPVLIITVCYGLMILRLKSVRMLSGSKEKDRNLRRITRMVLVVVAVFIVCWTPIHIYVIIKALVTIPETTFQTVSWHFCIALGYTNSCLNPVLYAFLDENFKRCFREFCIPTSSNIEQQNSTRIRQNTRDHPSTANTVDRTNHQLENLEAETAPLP
Procedure: The binding of each of MGM-30 and MGM-29 to human μ-opioid receptors was evaluated through use of a μ-opioid receptor ligand DAMGO ([D-Ala(2), N-Me-Phe(4), Gly-ol(5)] enkephalin acetate salt). MGM-9 was used as a sample for comparison and evaluated by the same method.
A cell membrane fraction of CHO-K1 cells expressing human μ-opioid receptor gene (manufactured by PerkinElmer) was used as a reagent. The human μ-opioid receptor-expressing cell membrane fraction was diluted to 1 mg/mL or 100 μg/mL with 50 mM Tris-HCl (pH 7.4), and then 1 mL of the dilution was dispensed in each of screw-capped vials, cryopreserved at −80° C., and dissolved before use. DAMGO was prepared at 1 mM with dimethylsulfoxide (hereinafter abbreviated as DMSO), and then dispensed in each of screw-capped vials, cryopreserved at −20° C., and dissolved before use.
A human μ-opioid receptor binding test was performed through use of the human μ-opioid receptor-expressing cell membrane fraction and [^3H]-labeled DAMGO (DAMGO, [TYROSYL-3,5-3H], manufactured by PerkinElmer: hereinafter referred to as [^3H]-DAMGO). Specifically, 10 μL of [^3H]-DAMGO (final concentration: 1 nM) diluted to 50 nM with 50% ethanol was added to 10 μL of a test compound solution obtained by diluting each of MGM-30, MGM-29, and MGM-9 with DMSO so as to have a final concentration of from 0.1 nM to 10,000 nM. 480 μL of the μ-opioid receptor-expressing cell membrane fraction diluted to 40 μg/mL with binding assay buffer (10 mM MgCl2, 50 mM Tris-HCl, 0.2% BSA, pH 7.4) was further added, followed by mixing, and the mixture was then subjected to a reaction at 27° C. for 2 hours. The same tests were performed for measurement of total binding activity by using 10 μL of DMSO in place of the test compound, and for measurement of μ-opioid receptor non-specific binding activity by using 10 μL of 1 mM DAMGO (final concentration: 20 μM) in place of the test compound. The binding reaction was terminated by suction filtration with a GF/C filter (manufactured by Whatman) preimmersed in 0.5% polyethylene imine. The filter was washed four times with 2.5 mL of a washing buffer (10 mM Tris-HCl, pH 7.4), and radioactivity remaining in the filter was measured. Then, a dissociation constant (Kd value) of [^3H]-DAMGO for the μ-opioid receptor-expressing cell membrane fraction was calculated by Scatchard plot analysis.
IC50 value was calculated, which is a test compound concentration at which the specific binding of [^3H]-DAMGO to human μ-opioid receptors was inhibited by 50%, by using analysis software XLfit™ ([…]). Then, an inhibition constant (Ki value) was calculated using the following equation: Ki=IC50/(1+S), S=(Concentration of [^3H]-DAMGO/Kd of [^3H]-DAMGO).

[5] = target: hMOR (human μ-opioid receptors) (Homo sapiens, UniProt P35372); assay: hMOR agonist activity (% DAMGO); type: biochemical
hMOR (human μ-opioid receptors), sequence (P35372 whole entry): as above

[6] = Metabolic stability test, rat liver microsome; type: in vitro ADME; conditions: rat liver microsomal fraction, 37° C., 30 minutes, NADPH
From the text: as §1, §2, §3

[7] = tested on: ddY strain mice; assay: Mouse tail-flick test, subcutaneous administration; type: in vivo; conditions: for analgesic action in words: s.c., 0.3, 1 and 3 mg/kg; for time after administration at which the analgesic action returned to the vehicle level: any of the doses
Procedure: The results of the test are represented by dose-response curves. […] In addition, a similar test was performed by using a vehicle as a negative control. The analgesic action of each compound was quantified by using a percentage of maximum possible effect (% MPE). % MPE was calculated from the following equation: % MPE=[(Post-drug latency−Pre-drug latency)/(Cut-off time−Pre-drug latency)]×100. The abscissa axis of FIG. 1 indicates a time after the administration of each compound (time after injection (min)).
Six-week-old male ddY strain mice (Japan SLC, Inc.) were used.
MGM-30 and MGM-29 were each dissolved in 25 mM phosphate buffer (pH 5.3 to 5.5). MGM-9, which was a known mitragynine derivative compound, was used as a sample for comparison. MGM-9 was obtained by synthesis according to a method similar to a method described in each of the previous reports (Patent Literatures 2 and 3 and Non Patent Literature 3).
A tail-flick test is a method of evaluating the analgesic effect of a compound, which comprises applying a nociceptive stimulus, for example, a heat stimulus, to the tail of a mouse, and then using as an indicator flight response elicited by the stimulus. Since a mouse respond to the heat stimulus by flicking or moving its tail out of the path of the stimulus, the tail is exposed to a photocell located in a tail-flick analgesia meter (Ugo Basile Tail-flick Unit 7360, Ugo Basile) immediately below the tail. A reaction time is automatically recorded.
Before treatment with the compounds, the vehicle, or physiological saline, a nociceptive threshold was measured three times, and the mean of the reaction time was used as a pre-drug latency for each mouse. The intensity of the heat stimulus was adjusted to such an intensity that mice flicked the tail upward within from 2 seconds to 4 seconds, and a time for heat treatment was set to a maximum stimulation time (cut-off time) of 10 seconds in order to prevent tissue damage. Each of the compounds was subcutaneously administered to mice in a volume of 10 mL/kg with doses 0.3 mg/kg, 1 mg/kg, and 3 mg/kg. A latency after the administration (post-drug latency) was measured 15 minutes, 30 minutes, 45 minutes, 60 minutes, 90 minutes, 120 minutes, and 180 minutes after the administration. The vehicle used for diluting the compounds was used as a control in place of the compounds, and was administered in the same volume. The analgesic action of each compound was quantified through use of a ratio to the maximum drug efficacy, i.e., a percentage of maximum possible effect (hereinafter abbreviated as % MPE) % MPE was calculated from the following equation: % MPE=[(Post-drug latency−Pre-drug latency)/(Cut-off time−Pre-drug latency)]×100. Each value is expressed as the mean of data obtained from six mice±standard error.
Data was expressed as the mean±standard error. Statistical analyses were performed by the two-tailed Student's t test for comparison of two groups and by a one-way analysis of variance followed by a Bonferroni multiple-comparison test for comparison of more than two groups. A P value of <0.05 was considered statistically significant.

[8] = 3 mg/kg s.c., 15 minutes after administration
[9] = 3 mg/kg s.c., 15 minutes to 60 minutes after administration

Row | Structure (SMILES) | Metabolic stability Ms human (% remaining) [3] | metabolic stability compared to formula (III), in words [3] | pKi [4] | hMOR agonist (% DAMGO) [5] | Metabolic stability Ms rat (% remaining) [6] | analgesic action (% MPE) [7, 8] | analgesic action in words [7] | analgesic action (% MPE) [7, 9] | time after administration at which the maximum analgesic action was expressed ([7]; s.c.) | time after administration at which the analgesic action returned to the vehicle level ([7]; s.c.) | other results
1 | CC[C@@H]1CN2CC[C@@]3(O)C(=Nc4cccc(OC)c43)[C@@H]2C[C@@H]1/C(=C\OC)C(=O)OC [7-hydroxymitragynine] | – | – | – | – | – | – | – | – | – | – | antinociceptive action [1]: remarkable antinociceptive action; effect on contraction induced by electrical stimulation [2]: inhibited contraction induced by electrical stimulation
2 | CC[C@@H]1CN2CC[C@@]34OCCC[C@@]3(Nc3cccc(OC)c34)[C@@H]2C[C@@H]1/C(=C\OC)C(=O)OC [MGM-29] | 78 % remaining | remarkably high metabolic stability | 8.31 | 45.9 % DAMGO | 36 % remaining | about 20% | limited analgesic action; also recorded: dose-dependent analgesic action | – | – | – | binding affinity for human μ-opioid receptors relative to MGM-9 (formula (III)), in words [4]: comparable to that of MGM-9; binding affinity for human μ-opioid receptors relative to MGM-9 (formula (III)), in words ([4]; listed as formula (II)): comparable to that of the compound represented by the formula (III); analgesic action in words ([7]; listed as formula (II)): exhibited an analgesic action, although the action was determinative
3 | CC[C@@H]1CN2CC[C@@]34OCCO[C@@]3(Nc3ccc(F)c(OC)c34)[C@@H]2C[C@@H]1/C(=C\OC)C(=O)OC [MGM-9, reference compound] | 57 % remaining | – | 8.46 | 49.0 % DAMGO | 3 % remaining | 100% | dose-dependent analgesic action | 100% | 15 min | One hundred and eighty | analgesic action (% MPE) ([7]; 1 mg/kg s.c., 15 minutes after administration): 100%; time after administration until which the analgesic action was sustained ([7]; 3 mg/kg s.c.): 120 min
4 | CC[C@@H]1CN2CC[C@@]34OCC[C@@]3(Nc3cccc(OC)c34)[C@@H]2C[C@@H]1/C(=C\OC)C(=O)OC [MGM-30] | 92 % remaining | remarkably high metabolic stability | 9.92 | 46.2 % DAMGO | 43 % remaining | – | dose-dependent analgesic action; also recorded: most potent analgesic action and had the longest duration of action | 100% | 15 min | 180 min | binding affinity for human μ-opioid receptors relative to MGM-9 (formula (III)) [4]: about 30 fold; analgesic action (% MPE) ([7]; 0.3 mg/kg s.c., 15 minutes to 30 minutes after administration): about 95%; time after administration until which the analgesic action was sustained ([7]; 1 mg/kg and 3 mg/kg s.c.): 90 min; analgesic action (% MPE) ([7]; 1 mg/kg s.c., 15 minutes to 60 minutes after administration): 100%; analgesic action relative to the compound of formula (III) (MGM-9) ([7]; s.c.): approximately 3 fold; analgesic action in words ([7]; listed as formula (I)): potent analgesic action in a dose-dependent manner
